Source: publication PMC12010937, “Evaluation of FXR Activity in Pollutants Identified in Sewage Sludge and Subsequent in Vitro and in Vivo Characterization of Metabolic Effects of Triphenyl Phosphate” (Environmental Health Perspectives, 2025)
Several values for one entry are separate records, joined by “and”; a condition that tells them apart may be missing. Equal values may be shown once.

Tests used:
C57BL/6N mice = assay: Hepatic total bile acids (TBA colorimetric assay kit); type: in vivo; details: for Hepatic TBA: individual mice
Procedure: Male C57BL/6N mice (8 wk of age) were purchased from Beijing Vital River Laboratory Inc. and acclimated to the environment for 2 wk before they were used for experiments. The environment was maintained at 22°C, in a 12-h light/dark cycle with 50%–60% relative humidity and fed standard chow diets. Because the male mice are more sensitive to metabolic disease than female mice and the estrous cycle of female mice may induce variability to the metabolic phenotypes,[50] only male mice were used in this study. Animals were randomly assigned to control or TPHP treatment groups (five mice per group). Mice were exposed to corn oil (control) purchased from Sigma-Aldrich (C8267) or TPHP (dissolved in corn oil) at 10mg/kg or 50mg/kg body weight (BW) by daily oral gavage for 35 d. The administered volume was 5mL/kg BW. The TPHP corn oil solutions for administration were prepared by dissolving the TPHP in corn oil, and the solutions were stored at −20°C and freshly prepared each week. BW was measured every other day during the dosing period. At the end of experiments, the mice were anesthetized with isoflurane, then blood was collected from the retro-orbital sinus via orbital puncture, and then the mice were euthanized by cervical dislocation. The liver was isolated, weighted, and divided into three fractions: one fraction was fixed with 4% neutral-buffered formalin for Oil Red staining; another fraction was frozen in liquid nitrogen and stored at −80°C for the BA targeted analysis, lipidomic analysis, and qPCR analysis; the remaining fraction was embedded with 3% carboxymethylcellulose (CMC) for MSI analysis. The ileum was also isolated, weighted, and stored at −80°C for the BA targeted analysis and qRT-PCR analysis. […]
The TG level in the liver was determined using a triglyceride enzymatic assay kit (Applygen). […] The total BA level in the liver was determined using a Total Bile Acid (TBA) Colorimetric Assay Kit (Elabscience). […] Both the TG and TBA results were normalized by the protein concentration determined by bicinchoninic acid (BCA) method using a BCA kit (Applygen).

[1] = molecular target: T1, human FXR-LBD (GST-FXR-LBD) (Homo sapiens, UniProt Q96RI1); assay: HTRF coactivator recruitment assay, agonist mode; type: biochemical
T1 construct: the human FXR-LBD (residues 234–472) was expressed as a GST fusion protein GST-FXR-LBD; made in house; host or cells: E. coli BL21(DE3)
T1 sequence (Q96RI1 234-472 isoform Q96RI1-2): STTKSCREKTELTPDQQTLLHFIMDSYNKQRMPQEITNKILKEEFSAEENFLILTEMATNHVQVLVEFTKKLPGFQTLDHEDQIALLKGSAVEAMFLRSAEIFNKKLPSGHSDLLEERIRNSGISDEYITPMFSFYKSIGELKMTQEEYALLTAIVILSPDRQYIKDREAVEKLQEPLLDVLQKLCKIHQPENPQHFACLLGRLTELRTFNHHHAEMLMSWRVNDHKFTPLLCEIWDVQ

For O=P(Oc1ccccc1)(Oc1ccccc1)Oc1ccccc1 [TPHP, triphenyl phosphate], the “Increase of total BA concentration in the liver relative to the control group” value (C57BL/6N mice; TPHP-H group, 35 d of exposure) was 2 fold, the “Hepatic TBA” value (C57BL/6N mice; TPHP-H: 50 mg/kg daily oral gavage 35 d) was 2.67 µmol/g and 2.92 µmol/g and 2.08 µmol/g and the “Hepatic TBA” value (C57BL/6N mice; TPHP-L: 10 mg/kg daily oral gavage 35 d) was 1.89 µmol/g and 1.55 µmol/g and 1.58 µmol/g. The “Relative activity, agonist mode” value [1] was 0.00%.
